Measurements taken from article PMC6627510, “The Role of a Key Amino Acid Position in Species-Specific Proteinaceous dUTPase Inhibition” (Biomolecules, 2019).

Assays:
Assay type in all cases: binding
E. coli dUTPase (EcDUT) [1] = molecular target: T1, E. coli dUTPase (EcDUT) (Escherichia coli, UniProt P06968, Q94H/F146W, form not given); experiment: tryptophan fluorescence; acrylamide quenching; conditions: 3 µM enzyme, 100 µM dUPNPP, 5 mM MgCl2, pH 7.5, 293 K; active site; quenching with 4 µM enzyme, 1.5 mM dUPNPP
T1 construct: gene dut; expressed in E. coli BL21(DE3) Rosetta; homotrimer; C-terminal residues R150, Q151

E. coli dUTPase (EcDUT) [2] = molecular target: T2, E. coli dUTPase (EcDUT) (Escherichia coli, UniProt P06968, F146W, form not given); experiment: tryptophan fluorescence; acrylamide quenching; conditions: 3 µM enzyme, 100 µM dUPNPP, 5 mM MgCl2, pH 7.5, 293 K; active site; quenching with 4 µM enzyme, 1.5 mM dUPNPP
T2 construct: gene dut; expressed in E. coli BL21(DE3) Rosetta; homotrimer; C-terminal residues R150, Q151

E. coli dUTPase (EcDUT) [3] = molecular target: T3, E. coli dUTPase (EcDUT) (Escherichia coli, UniProt P06968, Q94R/F146W, form not given); experiment: tryptophan fluorescence; conditions: 3 µM enzyme, 100 µM dUPNPP, 5 mM MgCl2, pH 7.5, 293 K; active site
T3 construct: gene dut; expressed in E. coli BL21(DE3) Rosetta; homotrimer; C-terminal residues R150, Q151

E. coli dUTPase (EcDUT) [4] = molecular target: T4, E. coli dUTPase (EcDUT) (Escherichia coli, UniProt P06968, Q94H, form not given); experiment: X-ray crystallography, […] Å; conditions: 5 mM dUPNPP, Mg2+, pH 7.5; active site; non-hydrolysable substrate analogue
T4 construct: gene dut; expressed in E. coli BL21(DE3) Rosetta; homotrimer; C-terminal residues R150, Q151

`O=c1ccn([C@H]2C[C@H](O)[C@@H](COP(=O)(O)NP(=O)(O)OP(=O)(O)O)O2)c(=O)[nH]1` [dUPNPP] was tested, and the “tryptophan fluorescence; acrylamide quenching” value (E. coli dUTPase (EcDUT) [1]) was “allowed us to follow substrate analogue and Stl binding of the three arm-tryptophan mutant enzyme”, the “tryptophan fluorescence; acrylamide quenching” value (E. coli dUTPase (EcDUT) [2]) was “allowed us to follow substrate analogue and Stl binding of the three arm-tryptophan mutant enzyme” and the tryptophan fluorescence (E. coli dUTPase (EcDUT) [3]) was “allowed us to follow substrate analogue and Stl binding of the three arm-tryptophan mutant enzyme”. For the same compound, the “X-ray crystallography, 1.8 Å” value (E. coli dUTPase (EcDUT) [4]) was “we crystallized the EcDUT^Q93H dUTPase mutant in the presence of the non-hydrolysable substrate analogue dUPNPP”.
